Where a name gives a salt, the structure may show the parent alone.
Key:
S. pneumoniae (PenR) = experiment: In vitro MIC, agar dilution; type: cell-based; settings: Streptococcus pneumoniae
E. coli = experiment: In vitro MIC, agar dilution; type: cell-based; settings: Escherichia coli, 25 isolates
Protocol: Each plate was inoculated with 1:100 (or 1:10 for slow-growing strains, primarily Micrococcus and Streptococcus) dilutions of up to 32 different microorganisms, using a Steers replicator block calibrated to deliver approximately 10^4 colony forming units (CFU's). The inoculated plates were incubated at from about 35° C. to about 37 ° C. for approximately 20-24 hours. In addition, a control plate using BHI agar containing no test compound was prepared and incubated at the beginning and at the end of each test. The quinolone antibacterial ciprofloxacin was used as a control ("Cntl").
The numbers below the microorganism species indicate the nunbers of isolates tested. […] The MIC is defined as the lowest concentration of test compound yielding no growth (a slight haze or sparsely isolated colonies at the inoculum spot) as compared to the growth control containing no test compound.

in vivo = settings: mouse, ip
S. aureus (CiproR) = experiment: In vitro MIC, agar dilution; type: cell-based; settings: Staphylococcus aureus
[1] = mouse, in vivo, ip, 100 mg/kg
Escherichia coli JUHL = experiment: In vivo efficacy, mouse infection (ED50); settings: Escherichia coli, in Mus musculus, 168 h
E. faecium (CiproR) = experiment: In vitro MIC, agar dilution; type: cell-based; settings: Enterococcus faecium, read-out: MIC Range
Enterococcus spp. (VanR) = experiment: In vitro MIC, agar dilution; type: cell-based
E. faecalis (VanS) = experiment: In vitro MIC, agar dilution; type: cell-based; settings: Enterococcus faecalis
S. aureus (CiproS) = experiment: In vitro MIC, agar dilution; type: cell-based; settings: Staphylococcus aureus
[2] = system: staphylococcus aureus NTCC 10649; experiment: In vivo efficacy, mouse infection (ED50); settings: Staphylococcus aureus, NTCC10649, in Mus musculus, 168 h
P. aeruginosa (CiproS) = experiment: In vitro MIC, agar dilution; type: cell-based; settings: Pseudomonas aeruginosa
[3] = system: Streptococcus pneumoniae 6303; experiment: In vivo efficacy, mouse infection (ED50); settings: Streptococcus pneumoniae, 6303, in Mus musculus, 168 h
P. aeruginosa (CiproR) = experiment: In vitro MIC, agar dilution; type: cell-based; settings: Pseudomonas aeruginosa, P. aeruginosa (CiproR), 20 isolates
S. pneumoniae (PenS) = experiment: In vitro MIC, agar dilution; type: cell-based; settings: Streptococcus pneumoniae
B. fragilis = experiment: In vitro MIC, agar dilution; type: cell-based; settings: Bacteroides fragilis
E. faecium (CiproS) = experiment: In vitro MIC, agar dilution; type: cell-based; settings: Enterococcus faecium

Cc1c(N2CC[C@H](N)C2)c(F)cn2c(=O)c(C(=O)O)cc(C3CC3)c12 [Example 2, 1-cyclopropyl-8-(3(S)-3-amino-1-pyrrolidinyl)-7-fluoro-9-methvl-4-oxo-4H-quinolizine-3-carboxylic acid hydrochloride]
MIC50 (S. pneumoniae (PenR)): 0.03 mg/L | MIC90 (S. pneumoniae (PenR)): 0.03 mg/L | MIC (S. pneumoniae (PenR); S. pneumoniae (PenR), 25 isolates, read-out: MIC Range): 0.03 mg/L | MIC (E. coli): 0.004 to 0.015 mg/L | MIC50 (E. coli; read-out: MIC50): 0.004 mg/L | MIC90 (E. coli; read-out: MIC90): 0.008 mg/L | LD50 at 504 h (in vivo): 38.8 mg/kg | MIC90 (S. aureus (CiproR)): 0.25 mg/L | MIC50 (S. aureus (CiproR); S. aureus (CiproR), 25 isolates, read-out: MIC50): 0.25 mg/L | MIC (S. aureus (CiproR); S. aureus (CiproR), 25 isolates, read-out: MIC Range): 0.03 to 1 mg/L | body weight loss [1]: 38% | ED50 (Escherichia coli JUHL; po): 0.6 mg/kg | ED50 (Escherichia coli JUHL; sc): 0.1 mg/kg | MIC (E. faecium (CiproR)): 0.5 to 2 mg/L | MIC90 (Enterococcus spp. (VanR); Enterococcus): 0.25 mg/L | MIC50 (Enterococcus spp. (VanR); Enterococcus spp. (VanR), 21 isolates, read-out: MIC50): 0.25 mg/L | MIC (Enterococcus spp. (VanR); Enterococcus spp. (VanR), 21 isolates, read-out: MIC Range): 0.12 to 2 mg/L | MIC90 (E. faecalis (VanS)): 0.12 mg/L | MIC50 (E. faecalis (VanS); E. faecalis (VanS), 17 isolates, read-out: MIC50): 0.06 mg/L | MIC (E. faecalis (VanS); E. faecalis (VanS), 17 isolates, read-out: MIC Range): 0.03 to 0.12 mg/L | MIC90 (S. aureus (CiproS)): 0.015 mg/L | MIC50 (S. aureus (CiproS); S. aureus (CiproS), 21 isolates, read-out: MIC50): 0.008 mg/L | MIC (S. aureus (CiproS); S. aureus (CiproS), 21 isolates, read-out: MIC Range): 0.008 to 0.015 mg/L | ED50 ([2]; po): 3.4 mg/kg | ED50 ([2]; sc): 0.6 mg/kg | MIC90 (P. aeruginosa (CiproS)): 0.25 mg/L | MIC50 (P. aeruginosa (CiproS); P. aeruginosa (CiproS), 24 isolates, read-out: MIC50): 0.06 mg/L | MIC (P. aeruginosa (CiproS); P. aeruginosa (CiproS), 24 isolates, read-out: MIC Range): 0.015 to 0.5 mg/L | ED50 ([3]; po): 5.3 mg/kg | ED50 ([3]; sc): 1.6 mg/kg | MIC50 (P. aeruginosa (CiproR); read-out: MIC50): 2 mg/L | MIC90 (P. aeruginosa (CiproR); read-out: MIC90): 2 mg/L | MIC (P. aeruginosa (CiproR); read-out: MIC Range): 1 to 4 mg/L | MIC50 (S. pneumoniae (PenS)): 0.03 mg/L | MIC90 (S. pneumoniae (PenS)): 0.03 mg/L | MIC (S. pneumoniae (PenS); S. pneumoniae (PenS), 20 isolates, read-out: MIC Range): 0.015 to 0.03 mg/L | MIC90 (B. fragilis): 0.5 mg/L | MIC (B. fragilis; read-out: MIC Range): 0.06 to 0.5 mg/L | MIC50 (B. fragilis; B. fragilis, 18 isolates, read-out: MIC50): 0.12 mg/L | MIC90 (E. faecium (CiproS)): 0.25 mg/L | MIC (E. faecium (CiproS); read-out: MIC Range): 0.25 to 0.5 mg/L | MIC50 (E. faecium (CiproS); E. faecium (CiproS), 16 isolates, read-out: MIC50): 0.25 mg/L
